Test results: patent publication US20240384268A1, “Oligonucleotides” (Hudson Institute of Medical Research, priority 2021, published 2024)
In the oligonucleotide strings, read from the 5' end, every base follows the letter of its sugar. An asterisk marks phosphorothioate; unmarked linkages are phosphodiester. Other units and linkages are bracketed, terminal groups are in braces. A string of capitals states the bases alone. d = 2'-deoxy (DNA); m = 2'-O-methyl

Molecular target: T1, human TLR7 (Homo sapiens, UniProt Q9NYK1)
T1 construct: HA; host or cells: 293XL-hTLR7-HA (HEK293)
T1 sequence (Q9NYK1 27-1049): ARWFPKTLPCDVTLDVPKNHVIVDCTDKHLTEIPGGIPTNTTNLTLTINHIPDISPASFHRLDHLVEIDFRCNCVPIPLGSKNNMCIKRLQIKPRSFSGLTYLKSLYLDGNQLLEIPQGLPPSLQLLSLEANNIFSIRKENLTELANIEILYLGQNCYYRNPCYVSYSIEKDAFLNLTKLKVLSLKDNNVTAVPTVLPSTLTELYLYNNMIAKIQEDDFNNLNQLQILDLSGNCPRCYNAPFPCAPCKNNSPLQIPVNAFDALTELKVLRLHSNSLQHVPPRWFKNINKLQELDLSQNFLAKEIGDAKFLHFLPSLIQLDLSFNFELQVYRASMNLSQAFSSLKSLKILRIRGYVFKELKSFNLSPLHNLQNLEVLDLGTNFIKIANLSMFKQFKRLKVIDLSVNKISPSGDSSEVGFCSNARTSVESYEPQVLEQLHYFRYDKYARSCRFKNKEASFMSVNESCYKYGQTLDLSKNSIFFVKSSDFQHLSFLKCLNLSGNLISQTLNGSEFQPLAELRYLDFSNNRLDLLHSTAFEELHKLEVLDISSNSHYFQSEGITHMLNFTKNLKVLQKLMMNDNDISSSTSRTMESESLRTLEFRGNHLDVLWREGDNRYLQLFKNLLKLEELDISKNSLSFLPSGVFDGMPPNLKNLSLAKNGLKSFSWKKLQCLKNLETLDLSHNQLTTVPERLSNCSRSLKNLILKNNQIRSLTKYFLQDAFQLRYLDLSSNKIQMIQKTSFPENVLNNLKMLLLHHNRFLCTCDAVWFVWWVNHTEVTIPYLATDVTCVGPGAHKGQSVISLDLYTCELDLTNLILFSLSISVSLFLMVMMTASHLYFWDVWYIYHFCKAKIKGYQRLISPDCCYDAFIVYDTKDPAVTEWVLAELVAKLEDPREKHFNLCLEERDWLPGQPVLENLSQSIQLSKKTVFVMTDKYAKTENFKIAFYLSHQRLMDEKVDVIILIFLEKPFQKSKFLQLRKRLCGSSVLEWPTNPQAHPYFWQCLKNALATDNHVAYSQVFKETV
Assay: HEK-TLR7 NF-κB-luciferase reporter, R848 stimulation
Assay type: cell-based
Conditions: for TLR7 100 nM (averaged NF-κB-Luciferase level relative to R848 condition): ASO 100 nM; for TLR7 100 nM (averaged NF-κB-Luciferase level relative to R848 condition) / TLR7 500 nM (averaged NF-κB-Luciferase level relative to R848 condition): relative to R848 only, given as fraction; for TLR7 500 nM (averaged NF-κB-Luciferase level relative to R848 condition): ASO 500 nM; for inhibition of R848 sensing by TLR7, short pre-treatment (in words) / TLR7 400 nM / TLR7 2 uM / inhibition of TLR7 by 3-mer 2′OMe oligos (in words) / IC50: HEK-TLR7; for inhibition of R848 sensing by TLR7, short pre-treatment (in words): 100-500 nM oligo 20-50 min before R848 1 μg/ml; for TLR7 400 nM: 3mer 2'OMe ASO at 400 nM; for TLR7 400 nM / TLR7 2 uM: value relative to Ligand only = 1.000, NT = 0.000; for TLR7 2 uM: 3mer 2'OMe ASO at 2 uM; for inhibition of TLR7 by 3-mer 2′OMe oligos (in words): 400 nM and 2 μM 3-mer, ~30 min, R848 1 μg/ml; for IC50: oligo ~30-50 min before 1 μg/ml R848 overnight, read-out: IC50 (R848 sensing by TLR7)

Row | Substance | TLR7 100 nM (averaged NF-κB-Luciferase level relative to R848 condition) | TLR7 500 nM (averaged NF-κB-Luciferase level relative to R848 condition) | TLR7 400 nM | TLR7 2 uM | further results
1 | TGCACACTTCGTACCC (antisense; LNA-modified, pattern not given here) [CAMSAP1-4916 LNA V1] | 0.806 | 0.299 |  |  | 
2 | mC*mG*mU*T*T*C*C*C*C*C*C*C*C*C*C*C*C*C*C*C (CGUTTCCCCCCCCCCCCCCC; antisense; sugars from the 5' end m3 d17, all phosphorothioate, methylation of C not given here) [[C2]Mut1-v3-dC] |  |  |  |  | inhibition of R848 sensing by TLR7, short pre-treatment (in words): significantly altered TLR7 inhibition
3 | dA*dC*dA (DNA ACA; listed as RNA, chemistry not fully specified) |  |  | 1.234 | 0.831 | 
4 | dA*dG*dA (DNA AGA; listed as DNA, chemistry not fully specified) |  |  | 1.219 | 0.795 | 
5 | CUA (mC*mU*mA) |  |  | 1.388 | 0.953 | 
6 | UUG (listed as RNA, chemistry not fully specified) |  |  | 0.945 | 1.074 | 
7 | dG*dC*dC [GCC] |  |  | 1.360 | 0.645 | 
8 | mGmAmU (mG*mA*mU) [GAU, 3-mer 2′OMe PS oligo] |  |  | 1.406 | 0.580 | inhibition of TLR7 by 3-mer 2′OMe oligos (in words): selectively inhibited TLR7 sensing; IC50: 300 nM
9 | mGmUmA (GUA; all 2'-O-methyl, backbone not given here; further chemistry not fully specified) [shortMut1-3b] |  |  | 0.702 | 0.239 | inhibition of TLR7 by 3-mer 2′OMe oligos (in words): inhibiting TLR7
10 | mGmUmC (mG*mU*mC) [GUC, 3-mer 2′OMe PS oligo] |  |  | 0.140 | 0.017 | inhibition of TLR7 by 3-mer 2′OMe oligos (in words): most potent 3-mer inhibiting TLR7
11 | T*T*A* G*G*G* T*T*A* G*G*G* T*T*A* G*G*G* T*T*A* G*G*G [A151, reference compound] |  |  |  |  | IC50: 132 nM
12 | GTGTCTGGAAGCTTCC (antisense; LNA-modified, pattern not given here) [CTNN2B-809 LNA V1] | 0.355 | 0.067 |  |  | 
13 | AAU (antisense mA*mA*mU) |  |  | 1.340 | 0.888 | 
14 | AUA (antisense mA*mU*mA) |  |  | 1.171 | 0.905 | 
15 | TTCGTGGGGTCCTTTT (antisense; LNA-modified, pattern not given here) [HPRT LNA-661 V1] | 0.487 | 0.178 |  |  | 
16 | GGTTACGGCTCAGTAT (antisense; LNA-modified, pattern not given here) [CAMSAP1-4295 LNA KL] | 0.438 | 0.140 |  |  | 
17 | GCAGGCTCAGTGATGT (antisense; LNA-modified, pattern not given here) [CTNN2B-1642 LNA V1] | 0.676 | 0.189 |  |  | 
18 | TGATGGCCTCCCATCT (antisense; LNA-modified, pattern not given here) [HPRT LNA-332 V1] | 0.657 | 0.153 |  |  | 
19 | UUC (mU*mU*mC) |  |  | 0.536 | 0.642 | 
20 | mG*mG*mU*A*T*C*C*C*C*C*C*C*C*C*C*C*C*C*C*C (GGUATCCCCCCCCCCCCCCC; antisense; sugars from the 5' end m3 d17, all phosphorothioate, methylation of C not given here) [[C2]Mut1-dC] |  |  |  |  | inhibition of R848 sensing by TLR7, short pre-treatment (in words): significantly higher TLR7 inhibition than dC20
21 | dA*dA*dG (DNA AAG; listed as DNA, chemistry not fully specified) |  |  | 1.247 | 0.876 | 

Row | Substance | TLR7 100 nM (averaged NF-κB-Luciferase level relative to R848 condition) | TLR7 500 nM (averaged NF-κB-Luciferase level relative to R848 condition) | TLR7 400 nM | TLR7 2 uM | further results
22 | dA*dA*dC (DNA AAC; listed as DNA, chemistry not fully specified) |  |  | 1.019 | 0.770 | 
23 | TGGCCTCCCATCTCCT (antisense; LNA-modified, pattern not given here) [HPRT LNA-329 V1] | 0.877 | 0.217 |  |  | 
24 | AUG (mA*mU*mG) |  |  | 0.987 | 0.602 | 
25 | mUmCmA (mU*mC*mA) [UCA, 3-mer 2′OMe PS oligo] |  |  | 1.122 | 0.819 | 
26 | TCCAACACTTCGTGGG (antisense; LNA-modified, pattern not given here) [HPRT LNA-669 V1] | 0.318 | 0.249 |  |  | 
27 | GCATCCACCACGTCGT (antisense; LNA-modified, pattern not given here) [EGFR-3267 LNA V1] | 0.555 | 0.085 |  |  | 
28 | UGU (mU*mG*mU) |  |  | 1.108 | 0.984 | 
29 | CCU (mC*mC*mU) |  |  | 1.210 | 0.880 | 
30 | GTATCGAAAGAGTCTG (antisense; LNA-modified, pattern not given here) [EGFR-3908 LNA KL] | 0.562 | 0.113 |  |  | 
31 | AGU (antisense mA*mG*mU) |  |  | 1.025 | 0.952 | 
32 | GTCTTGGCTTCGTGGA (antisense; LNA-modified, pattern not given here) [MB21D1-522 LNA V1] | 0.652 | 0.056 |  |  | 
33 | CAU (mC*mA*mU) |  |  | 1.288 | 0.995 | 
34 | mCmUmU (antisense mC*mU*mU) [660-3] |  |  | 1.277 | 0.913 | 
35 | GCCATGTTTCTTCTTG (antisense; LNA-modified, pattern not given here) [MB21D1-1248 LNA KL] | 0.816 | 0.021 |  |  | 
36 | TCGTAGTTGCTTCCTA (antisense; LNA-modified, pattern not given here) [MB21D1-1181 LNA KL] | 0.380 | 0.198 |  |  | 
37 | UCU (mU*mC*mU) |  |  | 1.196 | 0.956 | 
38 | dC*dC*dG (CCG; listed as DNA, chemistry not fully specified) |  |  | 1.227 | 1.006 | 
39 | UAU (mU*mA*mU) |  |  | 1.086 | 0.935 | 
40 | mUmGmG (mU*mG*mG) [UGG, 3-mer 2′OMe PS oligo] |  |  | 1.029 | 0.989 | 
41 | mGmUmG (mG*mU*mG) [GUG, 3-mer 2′OMe PS oligo] |  |  | 0.449 | 0.072 | inhibition of TLR7 by 3-mer 2′OMe oligos (in words): inhibiting TLR7
